Measurements published in patent US20200062773A1, “4,4a,5,7-TETRAHYDRO-3H-FURO[3,4-b]PYRIDINYL COMPOUNDS” (Janssen Pharmaceutlca NV, priority 2016, published 2020).

What was measured:
[1] = test system: Abeta 1-42 produced and secreted into the medium of human neuroblastoma SKNBE2 cells; assay: Cellular αLisa assay in SKNBE2 cells; assay type: cell-based; conditions: human neuroblastoma SKNBE2 cells expressing hAPP695, 18 hours incubation; for IC50: Homo sapiens, SKNBE2, 18 h, read-out: Cellular αLisa assay in SKNBE2 cells Abeta 42 pIC50 (converted)
Protocol: Cellular αLisa Assay in SKNBE2 Cells
In two αLisa assays the levels of Abeta 1-42 produced and secreted into the medium of human neuroblastoma SKNBE2 cells are quantified. The assay is based on the human neuroblastoma SKNBE2 expressing the wild type Amyloid Precursor Protein (hAPP695). The compounds are diluted and added to these cells, incubated for 18 hours and then measurements of Abeta 1-42 are taken. Abeta 1-42 are measured by sandwich αLisa. αLisa is a sandwich assay using biotinylated antibody AbN/25 attached to streptavidin coated beads and antibody cAb42/26 conjugated acceptor beads for the detection of Abeta 1-42 respectively. In the presence of Abeta 1-42, the beads come into close proximity. The excitation of the donor beads provokes the release of singlet oxygen molecules that trigger a cascade of energy transfer in the acceptor beads, resulting in light emission. Light emission is measured after 1 hour incubation (excitation at […] and emission at 615 nm).
(§1) A best-fit curve is fitted by a minimum sum of squares method to the plot of % Controlmin versus compound concentration. From this an IC50 value (inhibitory concentration causing 50% inhibition of activity) can be obtained.

BACE2 = target: T1, BACE2 (Homo sapiens, UniProt Q9Y5Z0); assay: BACE2 biochemical FRET based assay; conditions: recombinant BACE2, 450 minutes at room temperature, pH 5.0; for IC50: read-out: Biochemical FRET based assay pIC50 (converted)
T1 construct: recombinant BACE2 protein in a final concentration of 0.4 μg/ml
T1 sequence (Q9Y5Z0 63-518): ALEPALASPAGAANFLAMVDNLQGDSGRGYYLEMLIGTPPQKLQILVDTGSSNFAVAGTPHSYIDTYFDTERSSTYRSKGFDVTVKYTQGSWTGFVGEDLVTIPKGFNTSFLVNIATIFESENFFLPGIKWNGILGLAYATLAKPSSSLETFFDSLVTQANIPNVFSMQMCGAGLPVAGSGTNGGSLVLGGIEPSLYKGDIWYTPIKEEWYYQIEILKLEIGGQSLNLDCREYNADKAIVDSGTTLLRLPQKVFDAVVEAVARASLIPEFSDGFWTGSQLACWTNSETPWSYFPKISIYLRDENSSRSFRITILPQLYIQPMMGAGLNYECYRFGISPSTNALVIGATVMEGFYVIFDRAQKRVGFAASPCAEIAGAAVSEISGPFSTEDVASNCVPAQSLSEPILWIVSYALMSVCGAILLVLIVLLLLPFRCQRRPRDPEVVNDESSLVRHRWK
Text: BACE2 Biochemical FRET Based Assay
(§2) This assay is a Fluorescence Resonance Energy Transfer Assay (FRET) based assay. The substrate for this assay contains the ‘Swedish’ Lys-Met/Asn-Leu mutation of the amyloid precursor protein (APP) beta-site APP-cleaving enzyme cleavage site. This substrate also contains two fluorophores: (7-methoxycoumarin-4-yl) acetic acid (Mca) is a fluorescent donor with excitation wavelength at 320 nm and emission at 405 nm and 2,4-Dinitrophenyl (Dnp) is a proprietary quencher acceptor. […] Upon cleavage by the beta-site APP-cleaving enzyme, the fluorophore Mca is separated from the quenching group Dnp, restoring the full fluorescence yield of the donor. The increase in fluorescence is linearly related to the rate of proteolysis.
Briefly in a 384-well format recombinant BACE2 protein in a final concentration of 0.4 μg/ml is incubated for 450 minutes at room temperature with 10 μM substrate in incubation buffer (50 mM Citrate buffer pH 5.0, 0.05% PEG, no DMSO) in the absence or presence of compound. Next the amount of proteolysis is directly measured by fluorescence measurement at T=0 and T=450 (excitation at 320 nm and emission at 405 nm). Results are expressed in RFU (Relative Fluorescence Units), as difference between T450 and T0.
as §1

BACE1 = target: T2, BACE1 (Homo sapiens, UniProt P56817); assay: BACE1 biochemical FRET based assay; conditions: Method 1: recombinant BACE1 1 μg/ml, 120 min at room temperature, pH 5.0; for IC50: read-out: Biochemical FRET based assay pIC50 (converted)
T2 construct: recombinant BACE1 protein in a final concentration of 1 μg/ml
T2 sequence (P56817 46-501): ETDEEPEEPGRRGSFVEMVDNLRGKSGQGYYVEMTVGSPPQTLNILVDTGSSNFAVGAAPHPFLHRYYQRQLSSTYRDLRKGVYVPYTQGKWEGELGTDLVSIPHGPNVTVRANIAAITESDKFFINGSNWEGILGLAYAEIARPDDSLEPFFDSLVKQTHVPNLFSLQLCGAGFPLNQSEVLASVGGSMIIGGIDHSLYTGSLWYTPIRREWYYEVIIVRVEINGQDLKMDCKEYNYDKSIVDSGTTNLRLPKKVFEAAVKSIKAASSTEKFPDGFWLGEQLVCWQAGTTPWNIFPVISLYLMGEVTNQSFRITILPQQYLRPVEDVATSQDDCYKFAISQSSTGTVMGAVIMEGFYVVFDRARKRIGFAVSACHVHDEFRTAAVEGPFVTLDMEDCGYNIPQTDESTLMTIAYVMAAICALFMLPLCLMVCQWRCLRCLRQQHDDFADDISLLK
Text: BACE1 Biochemical Fret Based Assay
as §2, with “this assay is an APP derived 13 amino acids peptide that contains the” for “this assay contains the”, “cleavage by BACE1, the fluorophore” for “cleavage by the beta-site APP-cleaving enzyme, the fluorophore”
Briefly in a 384-well format recombinant BACE1 protein in a final concentration of 1 μg/ml is incubated for 120 minutes at room temperature with 10 μm substrate in incubation buffer (40 mM Citrate buffer pH 5.0, 0.04% PEG, 4% DMSO) in the absence or presence of compound. Next the amount of proteolysis is directly measured by fluorescence measurement at T=0 and T=120 (excitation at 320 nm and emission at 405 nm). Results are expressed in RFU (Relative Fluorescence Units), as difference between T120 and T0.
as §1

SMILES	Cellular αLisa assay in SKNBE2 cells Abeta 42 pIC50 [1]	IC50 (BACE2)	IC50 (BACE1)	Biochemical FRET based assay pIC50 (BACE2)	Biochemical FRET based assay pIC50 (BACE1)	IC50 [1]
N#Cc1ccc(C(=O)Nc2ccc(F)c([C@@]34CO[C@@H](C(F)(F)F)[C@@H]3CCC(N)=N4)c2)nc1 [11b]	5.9					
C[C@H]1OC[C@]2(c3cc(NC(=O)c4ccc(C#N)cn4)ccc3F)N=C(N)[C@@](C)(C#N)C[C@H]12 [6b]	8.12			6.68	7.89	
C[C@]1(C#N)C[C@H]2[C@H](C(F)(F)F)OC[C@@]2(c2cc(NC(=O)c3ncc(Cl)cn3)ccc2F)N=C1N [8d]	5.1			5.08	5.37	
CC(F)(F)[C@H]1OC[C@]2(c3cc(NC(=O)c4cnc(-n5cncn5)cn4)ccc3F)N=C(N)[C@](C)(C#N)C[C@H]12 [16a]		0.363 µM	0.0049 µM			0.0166 µM
C[C@]1(C#N)C[C@@H]2[C@@H](C(F)(F)F)OC[C@]2(c2cc(NC(=O)c3ccc(F)cn3)ccc2F)N=C1N [2f]	7.47			7.35	7.83	
COc1cnc(C(=O)Nc2ccc(F)c([C@]34CO[C@H](C)[C@H]3C[C@@](C)(C#N)C(N)=N4)c2)cn1 [1b]	8.47			7.21	7.89	
Cl.NC1=N[C@]2(c3cc(NC(=O)c4ccc(F)cn4)ccc3F)CO[C@@H](C(F)(F)F)[C@@H]2CC1 [12b]	5.45				5.27	
C[C@@]1(C#N)C[C@H]2[C@H](C(F)(F)F)OC[C@@]2(c2cc(NC(=O)c3ccc(F)cn3)ccc2F)N=C1N [2e]	<5.05			<5	<5	
C[C@@H]1OC[C@@]2(c3cc(NC(=O)c4cnc(OCF)cn4)ccc3F)N=C(N)[C@@](C)(C#N)C[C@@H]12 (single isomer, unassigned) [9c]	5.8			<5	5.76	
Cl.NC1=N[C@@]2(c3cc(NC(=O)c4ccc(F)cn4)ccc3F)CO[C@H](C(F)(F)F)[C@H]2CC1 [12c]	8.13			7.26	7.95	
C[C@]1(C#N)C[C@@H]2[C@@H](C(F)(F)F)OC[C@]2(c2cc(NC(=O)c3cnc(OCF)cn3)ccc2F)N=C1N [7e]	7.33			6.24	7.68	
COc1cnc(C(=O)Nc2ccc(F)c([C@@]34CO[C@@H](C)[C@@H]3C[C@@](C)(C#N)C(N)=N4)c2)cn1 [5c]	<5.05			<5	<5	
CC(C)(F)[C@H]1OC[C@]2(c3cc(NC(=O)c4ccc(C#N)cn4)ccc3F)N=C(N)[C@](C)(C#N)C[C@H]12 [21a]	8.62					
CC(F)(F)[C@H]1OC[C@]2(c3cc(NC(=O)c4ccc(C#N)cn4)ccc3F)N=C(N)[C@](C)(C#N)C[C@H]12 [17a]		0.0214 µM	0.00158 µM			0.00214 µM
C[C@@]1(C#N)C[C@H]2[C@H](C(F)(F)F)OC[C@@]2(c2cc(NC(=O)c3ccc(C#N)cn3)ccc2F)N=C1N [3e]	5.34			<5	5.84	
COc1cnc(C(=O)Nc2ccc(F)c([C@]34CO[C@H](C)[C@H]3C[C@](C)(S(C)(=O)=O)C(N)=N4)c2)cn1 (single isomer, unassigned) [13d]	<5.05			<5	<5	

More lines, now with the values ahead:

Cellular αLisa assay in SKNBE2 cells Abeta 42 pIC50 [1]	IC50 (BACE2)	IC50 (BACE1)	Biochemical FRET based assay pIC50 (BACE2)	Biochemical FRET based assay pIC50 (BACE1)	IC50 [1]	SMILES
7.57	0.263 µM	0.00631 µM				CC1(C#N)CC2C(C(F)(F)F)OCC2(c2cc(NC(=O)c3cnc(-n4cncn4)cn3)ccc2F)N=C1N (single isomer, unassigned) [34a]
8.32	0.0832 µM	0.00562 µM				CC1OCC2(c3cc(NC(=O)c4ccc(OC(F)F)cn4)ccc3F)N=C(N)C(C)(C#N)CC12 (single isomer, unassigned) [35a]
	0.105 µM	0.00977 µM			0.0316 µM	C[C@@]1(C#N)C[C@@H]2[C@@H](C(F)F)OC[C@]2(c2cc(NC(=O)c3cnc(-n4cncn4)cn3)ccc2F)N=C1N [26a]
5.31	> 10 µM	1.02 µM				CC1(C#N)CC2C(C(F)(F)F)OCC2(c2cc(NC(=O)c3cnc(-n4cncn4)cn3)ccc2F)N=C1N (single isomer, unassigned) [34b]
		0.00191 µM			0.00178 µM	Cc1cc(C#N)cnc1C(=O)Nc1ccc(F)c(C23COC(C(C)(F)F)C2CC(C)(C#N)C(N)=N3)c1 (stereo not shown) [compound 37]
7.13	0.891 µM	0.0525 µM				CC1(C#N)CC2C(C(F)F)OCC2(c2cc(NC(=O)c3cnc(OCF)cn3)ccc2F)N=C1N (single isomer, unassigned) [25b]
7.81	0.0447 µM	0.0055 µM				CC1OCC2(c3cc(NC(=O)c4ccc(C#N)cn4)cc(F)c3F)N=C(N)C(C)(C#N)CC12 (single isomer, unassigned) [33b]
	0.0741 µM	0.00479 µM			0.0132 µM	C[C@@]1(C#N)C[C@@H]2[C@@H](CF)OC[C@]2(c2cc(NC(=O)c3cnc(OCF)cn3)ccc2F)N=C1N [22a]
	0.0851 µM	0.00676 µM			0.01 µM	CC1OCC2(c3cc(NC(=O)c4ccc(OC(F)F)cn4)ccc3F)N=C(N)C(C)(C#N)CC12 (stereo not shown) [compound 35]
6.11	> 10 µM	0.741 µM				CC1OCC2(c3cc(NC(=O)c4ccc(OC(F)F)cn4)ccc3F)N=C(N)C(C)(C#N)CC12 (single isomer, unassigned) [35b]
		0.000955 µM			0.0038 µM	CC1(C#N)CC2C(C(C)(F)F)OCC2(c2cc(NC(=O)c3cnc(OC(F)F)cn3)ccc2F)N=C1N (stereo not shown) [compound 38]
		0.00214 µM			0.00288 µM	CC1(C#N)CC2C(CF)OCC2(c2cc(NC(=O)c3ccc(C#N)cn3)ccc2F)N=C1N (stereo not shown) [24a]
